Experimental findings from PubChem BioAssay (NCI) are described below.

Holding throughout (assay): inhibition of tumour cell growth, NCI panel, 48 h
The test system of experiment [1] is A549 NSCLC.
Experiment [2] has as its system ACHN renal.
Experiment [3] concerns HCT-15 colon.
Experiment [4] relates to HL-60(TB) leukemia.
Experiment [5] concerns IGROV1 ovarian.
Experiment [6] deals with MALME-3M melanoma.
Experiment [7] has as its system OVCAR-5 ovarian.
The subject of experiment [8] is SW-620 colon.
Experiment [9] concerns U251 CNS.
For experiment [10], the system named is UACC-62 melanoma.

Values joined by “and” are separate entries in the source; they are usually repeats but may differ in a detail not shown here. Equal values may be shown once.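 A five-concentration, 48-hour dose response in 96-well plates underlies each endpoint, interpolated linearly between surrounding concentrations. Here, GI50 denotes the concentration required for 50% inhibition of growth. At the TGI there is no net growth.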

Consider `CCS(=O)(=O)Nc1ccc(Oc2ccc(F)cc2F)c(-c2cn(C)c(=O)c3[nH]ccc23)c1`, for which the GI50 in experiment [1] was 0.152 µM; in experiment [2], 0.153 µM; in experiment [3], 0.0404 µM; in experiment [4], less than 0.01 µM; in [5], 0.0327 µM; in experiment [6], 0.202 µM. Moreover, the GI50 is 1.29 µM in experiment [7], 1.65 µM in experiment [8], 0.293 µM in [9] and less than 0.01 µM in experiment [10]. The TGI in experiment [1] came out at 28.1 µM; in experiment [2], 27.2 µM; in [3], 19.5 µM; in experiment [4], 0.249 µM; in [5], 20.5 µM; in experiment [6] it was 12.9 µM. Besides, the TGI in experiment [7] came to 34.7 µM; in [8], 25.8 µM; in experiment [9], 16.8 µM; in experiment [10], 6.28 µM.

As to `Cc1nn(-c2ccccc2)c2ncc3c(c12)C(=O)N(Cc1ccccc1)C3=O`, the GI50 was 5.25 µM in experiment [1]; 3.57 µM in experiment [2]; greater than 100 µM in [3]; greater than 100 µM in experiment [4]; 5.37 µM in [5]; 5.24 µM in [6]. Further, the GI50 in experiment [7] is greater than 100 µM; in experiment [8], greater than 100 µM; in experiment [9], 3.12 µM; in experiment [10], 21.5 µM. The TGI in [1] is greater than 100 µM; in experiment [2] it was 13.7 µM; in experiment [3] it was greater than 100 µM; in experiment [4], greater than 100 µM; in experiment [5], 64.7 µM; in [6], greater than 100 µM. Besides, the TGI was greater than 100 µM in [7], greater than 100 µM in [8], 14.2 µM in [9] and greater than 100 µM in experiment [10].

For `O=[N+]([O-])c1ccc(-c2ccc(C3=Nn4c(nnc4-c4ccc(Cl)cc4)SC3)o2)cc1`, the TGI in experiment [1] was greater than 100 µM; in [2], greater than 100 µM; in experiment [3], greater than 100 µM; in experiment [4], greater than 100 µM; in experiment [5], greater than 100 µM; in experiment [6], greater than 91.6 µM. Further, the TGI in [7] is greater than 100 µM; in [8], greater than 100 µM; in [9], greater than 70.7 µM; in [10], greater than 100 µM.

In the case of `CC(CCC/C=C/CCCN(C)C(=N)N)CC(C)C1OC(=O)C(C)C(O)/C=C/C(C)C(O)C(C)C(O)C(C)C(O)CCCC(O)CC2(O)OC(CC(OC(=O)CC(=O)O)CC(O)CC(O)C(C)C(O)/C=C/C=C/C1C)CC(O)C2O` (stereo not given), the GI50 was 2.45 µM and 4.42 µg/mL in experiment [1]; 2 µM and 5.72 µg/mL in experiment [2]; 2.35 µM and 11.9 µg/mL in experiment [3]; 6.5 µg/mL in experiment [4]; 2.51 µM and 3.12 µg/mL in experiment [5]; 2.37 µM and 2.57 µg/mL in experiment [6]. Also, the GI50 in experiment [7] is 14.4 µM and 13.5 µg/mL; in [8], 2.02 µM and 9.83 µg/mL; in experiment [9], 3.37 µM and 3.3 µg/mL; in experiment [10] it was 2.13 µM and 8.05 µg/mL. Besides, the TGI in experiment [1] was 5.63 µM and 16.8 µg/mL; in experiment [2], 4.31 µM and 20.6 µg/mL; in experiment [3], 5.33 µM and 28.9 µg/mL; in experiment [4] it was 21.2 µg/mL; in [5] it was 5.01 µM and 12.4 µg/mL; in [6], 5 µM and 11.7 µg/mL. Further, the TGI is 29.9 µM and 26.1 µg/mL in [7]; 3.7 µM and 21.7 µg/mL in [8]; 11.6 µM and 14.9 µg/mL in experiment [9]; 4.52 µM and 19.1 µg/mL in experiment [10].

On to `O=c1c2ccccc2nc(-c2ccccc2Cl)n1NC1OC(CO)C(O)C(O)C1O` (stereo not given), for which the TGI in [1], in [2], in experiment [3], in experiment [4], in experiment [5] and in experiment [6] was greater than 100 µM in each case. For the same molecule, the TGI in experiment [7], in experiment [8], in experiment [9] and in [10] was greater than 100 µM throughout.

Turning to `Cn1cc(C2=C(c3cn(CCCSC(=N)N)c4ccccc34)C(=O)NC2=O)c2ccccc21`, the GI50 is 4.73 µM in [1]; 4.42 µM in experiment [2]; 4.71 µM in [3]; 0.789 µM in experiment [4]; 3.03 µM in experiment [5]; 3.84 µM in [6]. Further, the GI50 was 4.51 µM in experiment [7], 1.66 µM in experiment [8], 1.61 µM in experiment [9] and 2.54 µM in [10]. For the same molecule, the TGI in [1] was determined as 12.9 µM; in experiment [2], 9.31 µM; in [3] it was 11.1 µM; in experiment [4], 2.14 µM; in experiment [5] it was 12.3 µM; in experiment [6], 8.34 µM. Besides, the TGI in experiment [7] worked out at 18.6 µM; in [8], 5.51 µM; in experiment [9], 5.06 µM; in experiment [10], 5.7 µM.
